Patent publication US20150105252A1, “SUBSTITUTED PYRAZOLES AS HERBICIDES” (E I DU PONT DE NEMOURS AND COMPANY, priority 2013, published 2015)

Columns and labels:
[1] = system: bluegrass; test: Test D preemergence; assay type: in vivo, Poa annua; details: scale 0 to 100
Summary of the method: (§1)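 Preemergence: seeds sown in silt loam and sprayed with compounds in a non-phytotoxic solvent with surfactant; postemergence: plants at 2 to 18 cm (1- to 4-leaf stage) in peat-based medium treated likewise. After 14 to 21 days in controlled growth conditions, injury rated visually versus controls on 0 (no effect) to 100 (complete control) scale.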

[2] = system: blackgrass; test: Test D preemergence; assay type: in vivo, Alopecurus myosuroides; details: scale 0 to 100
Summary of the method: as §1

[3] = system: galium; test: Test D preemergence; assay type: in vivo, Galium aparine; details: scale 0 to 100
Summary of the method: as §1

[4] = system: field poppy; test: Test D preemergence; assay type: in vivo, Papaver rhoeas; details: scale 0 to 100
Summary of the method: as §1

[5] = system: foxtail, green; test: Test D preemergence; assay type: in vivo, Setaria viridis; details: scale 0 to 100
Summary of the method: as §1

[6] = system: lambsquarters; test: Test D preemergence; assay type: in vivo, Chenopodium album; details: scale 0 to 100
Summary of the method: as §1

[7] = system: mustard, wild; test: Test D preemergence; assay type: in vivo, Sinapis arvensis; details: scale 0 to 100
Summary of the method: as §1

[8] = system: ryegrass, Italian; test: Test D postemergence; assay type: in vivo, Lolium multiflorum; details: scale 0 to 100
Summary of the method: as §1

[9] = system: wheat, spring; test: Test D postemergence; assay type: in vivo, Triticum aestivum; details: scale 0 to 100
Summary of the method: as §1

[10] = system: wheat, winter; test: Test D postemergence; assay type: in vivo, Triticum aestivum; details: scale 0 to 100
Summary of the method: as §1

[11] = system: corn; test: Test F preemergence; assay type: in vivo, Zea mays
Source text: (§2) Seeds of plant species selected from corn (Zea mays), soybean (Glycine max), velvetleaf (Abutilon theophrasti), lambsquarters (Chenopodium album), wild poinsettia (Euphorbia heterophylla), pigweed, palmer (palmer pigweed, Amaranthus palmeri), common waterhemp (Amaranthus rudis), surinam grass (Brachiaria decumbens), large crabgrass (Digitaria sanguinalis), crabgrass, Brazil (Brazilian crabgrass, Digitaria horizontalis), fall panicum (Panicum dichotomiflorum), giant foxtail (Setaria faberii), green foxtail (Setaria viridis), goosegrass (Eleusine indica), johnsongrass (Sorghum halepense), common ragweed (Ambrosia elation), barnyardgrass (Echinochloa crus-galli), southern sandbur (Cenchrus echinatus), arrowleaf sida (Sida rhombifolia), Italian ryegrass (Lolium multiflorum), dayflower, VA (Virginia (VA) dayflower, Commelina virginica), field bindweed (Convolvulus arvensis), cocklebur (common cocklebur, Xanthium strumarium), morningglory (Ipomoea coccinea), nightshade (eastern black nightshade, Solanum ptycanthum), kochia (Kochia scoparia), yellow nutsedge (Cyperus esculentus), and hairy beggarticks (Bidens pilosa), were planted into a silt loam soil and treated preemergence with test chemicals formulated in a non-phytotoxic solvent mixture which included a surfactant.
(§3) At the same time, plants from these crop and weed species and also horseweed (Canada horseweed, Conyza canadensis), smartweed (ladysthumb smartweed, Polygonum persicaria), waterhemp_RES1, (ALS & Triazine resistant common waterhemp, Amaranthus rudis), and waterhemp_RES2, (ALS & HPPD resistant common waterhemp, Amaranthus rudis) were treated with postemergence applications of test chemicals formulated in the same manner. Plants ranged in height from 2 to 18 cm for postemergence treatments (1- to 4-leaf stage). Treated plants and controls were maintained in a greenhouse for 14 to 21 days, after which time all species were compared to controls and visually evaluated. Plant response ratings, summarized in Table F, are based on a scale of 0 to 100 where 0 is no effect and 100 is complete control. A dash (-) response means no test result.

[12] = system: soybean; test: Test F preemergence; assay type: in vivo, Glycine max
Summary of the method: (§4)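 Visual rating 0–100 vs untreated controls (0 = no effect, 100 = complete control) after 14–21 d greenhouse. Pre: seeds in silt loam soil. Post: plants 2–18 cm, 1–4 leaf. Formulation: non-phytotoxic solvent mix + surfactant.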

[13] = system: pigweed, palmer; test: Test F preemergence; assay type: in vivo, Amaranthus palmeri
Source text: as §2, §3

[14] = system: dayflower, VA; test: Test F preemergence; assay type: in vivo, Commelina virginica
Summary of the method: as §4

[15] = Preemergence, 31 g ai/ha, scale 0 to 100
[16] = Preemergence, 62 g ai/ha, scale 0 to 100
[17] = Preemergence, 125 g ai/ha, scale 0 to 100
[18] = preemergence, 8 g ai/ha, scale 0 to 100, 100 is complete control
[19] = preemergence, 16 g ai/ha, scale 0 to 100, 100 is complete control

Which “Plant response rating, Bluegrass” value ([1]; 31 g ai/ha) does the source give for `CCc1cc(C(=O)NCC(F)(F)F)nn1Cc1ccnc(C(F)(F)F)c1` [Compound 78, 5-ethyl-N-(2,2,2-trifluoroethyl)-1-[[(2-trifluoromethyl)-4-pyridinyl]methyl]-1H-pyrazole-3-carboxamide] here?
Its value is 50.

And the “Plant response rating, Bluegrass” value ([1]; 62 g ai/ha)?
The value was 80.

What about the “Plant response rating, Bluegrass” value ([1]; 125 g ai/ha) of the same molecule?
The value was 95.

What about the “Plant response rating, Bluegrass” value ([1]; 250 g ai/ha) of the same molecule?
The value was 100.

What about the “Plant response rating, Blackgrass” value ([2]; 31 g ai/ha) of the same molecule?
Its value is 35.

And the “Plant response rating, Blackgrass” value ([2]; 62 g ai/ha)?
The value was 70.

And the “Plant response rating, Blackgrass” value ([2]; 125 g ai/ha)?
Its value is 80.

And the “Plant response rating, Blackgrass” value ([2]; 250 g ai/ha)?
The value was 100.

What about the “Plant response rating, Galium” value ([3]; 31 g ai/ha) of the same molecule?
Its value is 95.

What about the “Plant response rating, Galium” value ([3]; 62 g ai/ha) of the same molecule?
Its value is 100.

What about the “Plant response rating, Galium” value ([3]; 125 g ai/ha) of the same molecule?
Its value is 100.

And the “Plant response rating, Galium” value ([3]; 250 g ai/ha)?
Its value is 100.

What about the “Plant response rating, Field Poppy” value ([4]; 31 g ai/ha) of the same molecule?
Its value is 100.

What about the “Plant response rating, Field Poppy” value ([4]; 62 g ai/ha) of the same molecule?
Its value is 100.

And the “Plant response rating, Field Poppy” value ([4]; 125 g ai/ha)?
Its value is 100.

And the “Plant response rating, Field Poppy” value ([4]; 250 g ai/ha)?
Its value is 100.

And the “Plant response rating, Foxtail, Green” value ([5]; 31 g ai/ha)?
The value was 50.

What about the “Plant response rating, Foxtail, Green” value ([5]; 62 g ai/ha) of the same molecule?
Its value is 100.

What about the “Plant response rating, Foxtail, Green” value ([5]; 125 g ai/ha) of the same molecule?
The value was 100.

What about the “Plant response rating, Foxtail, Green” value ([5]; 250 g ai/ha) of the same molecule?
The value was 100.

And the “Plant response rating, Lambsquarters” value ([6]; 31 g ai/ha)?
The value was 95.

And the “Plant response rating, Lambsquarters” value ([6]; 62 g ai/ha)?
The value was 100.

What about the “Plant response rating, Lambsquarters” value ([6]; 125 g ai/ha) of the same molecule?
Its value is 100.

And the “Plant response rating, Lambsquarters” value ([6]; 250 g ai/ha)?
Its value is 100.

What about the “Plant response rating, Mustard, Wild” value ([7]; 31 g ai/ha) of the same molecule?
Its value is 100.

And the “Plant response rating, Mustard, Wild” value ([7]; 62 g ai/ha)?
The value was 100.

What about the “Plant response rating, Mustard, Wild” value ([7]; 125 g ai/ha) of the same molecule?
The value was 100.

What about the “Plant response rating, Mustard, Wild” value ([7]; 250 g ai/ha) of the same molecule?
Its value is 100.

And the “Ryegrass, Italian plant response rating” value ([8]; Postemergence, 31 g ai/ha)?
Its value is 5.

What about the “Ryegrass, Italian plant response rating” value ([8]; Postemergence, 125 g ai/ha) of the same molecule?
The value was 10.

And the “Ryegrass, Italian plant response rating” value ([8]; Postemergence, 250 g ai/ha)?
The value was 45.

What about the “Ryegrass, Italian plant response rating” value ([8]; postemergence, 62 g ai/ha) of the same molecule?
The value was 5.

And the “Wheat, Spring plant response rating” value ([9]; Postemergence, 31 g ai/ha)?
The value was 0.

And the “Wheat, Spring plant response rating” value ([9]; Postemergence, 125 g ai/ha)?
Its value is 15.

And the “Wheat, Spring plant response rating” value ([9]; Postemergence, 250 g ai/ha)?
The value was 25.

And the “Wheat, Spring plant response rating” value ([9]; postemergence, 62 g ai/ha)?
The value was 5.

And the “Wheat, Winter plant response rating” value ([10]; Postemergence, 31 g ai/ha)?
Its value is 10.

And the “Wheat, Winter plant response rating” value ([10]; Postemergence, 125 g ai/ha)?
The value was 25.

And the “Wheat, Winter plant response rating” value ([10]; Postemergence, 250 g ai/ha)?
The value was 55.

And the “Wheat, Winter plant response rating” value ([10]; postemergence, 62 g ai/ha)?
Its value is 15.

And the “Plant response rating, Corn” value [11, 15]?
The value was 20.

And the “Plant response rating, Corn” value [11, 16]?
Its value is 65.

And the “Plant response rating, Corn” value [11, 17]?
Its value is 70.

And the “Plant response rating, Corn” value [11, 18]?
Its value is 0.

And the “Plant response rating, Corn” value [11, 19]?
Its value is 10.

What about the “Plant response rating, Soybean” value [12, 15] of the same molecule?
The value was 95.

What about the “Plant response rating, Soybean” value [12, 16] of the same molecule?
The value was 80.

What about the “Plant response rating, Soybean” value [12, 17] of the same molecule?
The value was 95.

What about the “Plant response rating, Soybean” value [12, 18] of the same molecule?
The value was 0.

And the “Plant response rating, Soybean” value [12, 19]?
The value was 0.

And the “Plant response rating, Pigweed, Palmer” value [13, 15]?
Its value is 35.

And the “Plant response rating, Pigweed, Palmer” value [13, 16]?
Its value is 100.

What about the “Plant response rating, Pigweed, Palmer” value [13, 17] of the same molecule?
Its value is 100.

What about the “Plant response rating, Pigweed, Palmer” value [13, 18] of the same molecule?
Its value is 20.

What about the “Plant response rating, Pigweed, Palmer” value [13, 19] of the same molecule?
Its value is 40.

What about the “Plant response rating, Dayflower, VA” value [14, 15] of the same molecule?
The value was 50.

And the “Plant response rating, Dayflower, VA” value [14, 16]?
The value was 95.

What about the “Plant response rating, Dayflower, VA” value [14, 17] of the same molecule?
Its value is 100.

And the “Plant response rating, Dayflower, VA” value [14, 18]?
The value was 0.

And the “Plant response rating, Dayflower, VA” value [14, 19]?
Its value is 0.
